Test results taken from patent US9289411B2, “Anti-HCV agent” (NATIONAL UNIVERSITY CORPORATION OKAYAMA UNIVERSITY, priority 2011, dated 2016).

Tests used:
[1] = Cytotoxic effect, WST-1 cell proliferation assay in AH1R cells; assay type: cell-based; conditions: human
Excerpt: (§3) Assay systems using OR6 cells (HCV-O strain), 1B-4R cells (HCV-1B-4 strain), and AH1R cells (HCV-AH1R strain) as HuH-7 cell-derived full-length HCV-RNA-replicating cells, and ORL8 cells (HCV-O strain), ORL11 cells (HCV-O strain), 1B-4RL cells (HCV-1B-4 strain), and KAH5RL cells (HCV-KAH5 strain) as Li23 cell-derived full-length HCV-RNA-replicating cells were used for the quantitative analysis of anti-HCV activity and evaluation of a cytotoxic effect in the present invention. […] In addition, all the HCV strains belong to genotype 1b.
The WST-1 cell proliferation assay was performed 72 hours after the culture.

[2] = tested on: HCV core protein in HCV-O/RLGE cells; test: Western blot analysis of HCV core protein in HCV-O/RLGE cells; assay type: cell-based; conditions: 72 hours, concentration region in which β-actin did not reduce
Procedure: HCV-O/RLGE cells (Ikeda et al., Liver Int 31:871-880, 2011) were plated onto a 6-well plate (5×10^4 cells in 3 mL of medium for HuH-7 cell line per well) and cultured. […] 72 hours after the culture, the cells were lysed with 100 μL of 2×SDS buffer to prepare a sample for Western blot analysis. The Western blot analysis using an antibody against an HCV core protein (CP11; Institute of Immunology, Tokyo) was performed according to a conventional method. β-Actin was detected with an anti-β-actin antibody (AC-15; Sigma-Aldrich) in a sample diluted 10-fold with 2×SDS buffer.

HCV RNA in ORL8 cells = test: Production of cured cells from ORL8 cells by treatment with N-89; assay type: cell-based, HCV genotype 1b
Procedure: A drug treatment method for the cells was performed according to a method with IFN-γ (1,000 IU/mL) (Abe K et al., Virus Res. 125:88-97, 2007) generally used in the production of cured cells by the inventors of the present invention.
(§1) 4×10^5 ORL8 cells were plated onto a 10-cm plate (10 mL of medium in the absence of G418) (Day 1), and N-89 was added so as to achieve a final concentration of 1 μM the next day (Day 2). After 3 days (Day 5), the cells were diluted 10-fold, and N-89 was added again the next day. This operation was repeated an additional four times (N-89 was added six times in total: Days 2, 6, 10, 14, 18, and 22). At the time of the dilution of the cells (Day 13), which was performed 3 days after the third addition of N-89, the cells were divided into two plates with medium in the presence of G418 (neomycin) (0.3 mg/mL) and medium in the absence of G418. Then, N-89 was added three times, a plurality of plates were prepared at the time of the final dilution of the cells, and finally, one of the plates for each of the media was subjected to CBB staining (Day 26).
FIG. 14 show the results. […] The ORL8 cells cultured in the medium in the presence of G418 were all killed, whereas the ORL8 cells cultured in the absence of G418 became confluent at a normal proliferation rate. In order to confirm that HCV RNA was eliminated from the cells, Western blot analysis was performed using an anti-HCV core antibody and an anti-HCV NS5B antibody (FIG. 14c). The ORL8 cells were used as a positive control.

[3] = tested on: HCV RNA in OL8 cells (HCV-O strain-derived full-length HCV-genome-replicating cells); test: Production of cured cells from OL8 cells subcultured for 3 years; assay type: cell-based; conditions: treated similarly with N-89
Procedure: as §1
(§2) Further, cells obtained by subculturing HCV-O strain-derived full-length HCV-genome-replicating cells (OL8 cells and OL11 cells) (Kato et al., Virus Res. 146:41-50, 2009) for 3 years (the cells had acquired the status of genetic diversity (called quasispecies) owing to various mutations in an HCV genome caused by the sustained replication of the HCV genome) were used and similarly treated with N-89.

[4] = tested on: HCV RNA in OL11 cells (HCV-O strain-derived full-length HCV-genome-replicating cells); test: Production of cured cells from OL11 cells subcultured for 3 years; assay type: cell-based; conditions: treated similarly with N-89
Procedure: as §1, §2

[5] = tested on: HCV-RNA replication in ORL8 cells; test: Influence of oxidizing agents KNO3 and NaClO4 on anti-HCV activity in ORL8 cells; assay type: cell-based, HCV genotype 1b; conditions: N-89 0.5 μM + KNO3 or NaClO4 10 μM, 72 hours
Procedure: The effects of addition of KNO3 and NaClO4 on the anti-HCV activity of N-89 were examined using ORL8 cells.
N-89 and KNO3 or NaClO4 were simultaneously added so that the concentrations of N-89 and KNO3 or NaClO4 were set to 0.5 μM and 10 μM, respectively. The luciferase activity was measured 72 hours after the culture.

OR6 cells = test: Cytotoxic effect, WST-1 cell proliferation assay in OR6 cells; conditions: OR6 cells, 72 hours, WST-1
Excerpt: Assay systems using OR6 cells (HCV-O strain), 1B-4R cells (HCV-1B-4 strain), and AH1R cells (HCV-AH1R strain) as HuH-7 cell-derived full-length HCV-RNA-replicating cells, and ORL8 cells (HCV-O strain), ORL11 cells (HCV-O strain), 1B-4RL cells (HCV-1B-4 strain), and KAH5RL cells (HCV-KAH5 strain) as Li23 cell-derived full-length HCV-RNA-replicating cells were used for the quantitative analysis of anti-HCV activity and evaluation of a cytotoxic effect in the present invention. The three cell lines, i.e., the 1B-4R cells, the 1B-4RL cells, and the KAH5RL cells have been disclosed in WO 2010/026965 A1. The AH1R cells may be produced with reference to Mori K et al., BBRC, 371:104-109, 2008 and WO 2010/026965 A1. In addition, all the HCV strains belong to genotype 1b.
In the measurement of the renilla luciferase activity and the measurement by the WST-1 method, experiments were performed in three wells independent of each other, and their means and standard deviation were calculated.
After 24 hours, N-89 was added so as to achieve concentrations of 20 μM, a 2-fold dilution series from 20 μM (10, 5, 2.5, 1.3, 0.63, and 0.31 μM), and 0, or N-251 was added so as to achieve concentrations of 10 μM, a 2-fold dilution series from 10 μM (5, 2.5, 1.3, 0.63, 0.31, and 0.16 μM), and 0.
The cytotoxic effect of artemisinin was examined using OR6 and ORL8 cells and the CC50 values were calculated. […]

[6] = Cytotoxic effect, WST-1 cell proliferation assay in KAH5RL cells; assay type: cell-based, human; conditions: human; KAH5RL cells, 72 hours, WST-1
Procedure: (§4) The concentrations of N-89 and N-251 were the same as the concentrations used for the measurement of the luciferase activity, and the WST-1 cell proliferation assay was performed 72 hours after the addition.

KAH5RL cells = test: as above; assay type: cell-based, human; conditions: KAH5RL vs ORL8
Procedure: as §4

1B-4RL cells = test: Cytotoxic effect, WST-1 cell proliferation assay in 1B-4RL cells; assay type: cell-based, human; conditions: 72 hours
Excerpt: as §3
N-89 was added at the concentrations used for the measurement of the luciferase activity, and N-251 was added so as to achieve concentrations of 2 μM, a 2-fold dilution series from 2 μM (1, 0.5, 0.25, 0.13, 0.06, and 0.03 μM), and 0. The WST-1 cell proliferation assay was performed 72 hours after the addition.

Structure (SMILES) | CC50 at 72 h [1] [nM] | amount of HCV core protein (Western blot) [2] | HCV core protein and NS5B in treated cells (Western blot) (HCV RNA in ORL8 cells; ORL8 cells treated with N-89 1 μM, added six times, Day 26) | treated cells cultured in medium in the presence of G418 (CBB staining) (HCV RNA in ORL8 cells; ORL8 cells, N-89 1 μM, G418 0.3 mg/mL) | production of cured cells (HCV RNA in ORL8 cells; ORL8 cells, N-89 1 μM, added six times) | production of cured cells [3] | production of cured cells [4] | influence of KNO3 or NaClO4 in combination on the anti-HCV activity [5] | CC50 (OR6 cells) [nM] | CC50 at 72 h [6] [µM] | CC50 fold higher in KAH5RL cells than in ORL8 cells (KAH5RL cells) | CC50 (1B-4RL cells) [nM]
C1CCCCCC2(CCCCC1)OOCCCOO2 [N-89, 1,2,6,7-tetraoxaspiro[7,11]nonadecane] | ~500 | clearly reduced | none of a core protein and NS5B was detected | all killed | cured cells were able to be produced | cured cells were able to be produced | cured cells were able to be produced | no influence |  |  |  | 
OCCCCCCC1COOC2(CCCCCCCCCCC2)OOC1 [N-251, 6-(1,2,6,7-tetraoxaspiro[7,11]nonadec-4-yl)] |  | clearly reduced |  |  |  |  |  |  | 3000 | 3.2 | about 2.5 fold | 1900
